According to ChEMBL document CHEMBL1955745, “Synthesis and in vitro antitumor activity of asperphenamate derivatives as autophagy inducer” (Bioorg Med Chem Lett, 2012):
pIC50: −log10 of the molar value. ≈ marks a conversion by molar mass, not a printed value.

Tests used:
MCF7 = experiment: Antiproliferative activity against human MCF7 cells after 3 days by MTT assay; format: functional, cell-based; conditions: MCF7, 72 h
HeLa = experiment: Antiproliferative activity against human HeLa cells after 3 days by MTT assay; format: functional, cell-based; conditions: 72 h
Bel-7402 = experiment: Antiproliferative activity against human Bel7402 cells after 3 days by MTT assay; format: functional, cell-based; conditions: Bel-7402, 72 h
[1] = Thermodynamic solubility of the compound in phosphate buffer at pH 7.4 at 1 mg after 10 mins by HPLC -UV analysis; format: physicochemical; conditions: read-out: Therm_solubility

Row | pIC50 (MCF7) | pIC50 (HeLa) | pIC50 (Bel-7402) | solubility thermodynamic at 10 min [1] [µg/mL] | SMILES
1 | < 4.00 | < 4.00 | < 4.00 | 513 (≈ 1190 µM) | C[C@@H](COC(=O)[C@H](Cc1ccccc1)NC(=O)c1ccccc1)NC(=O)c1ccccc1
2 | < 4.00 | < 4.00 | < 4.00 | 192 (≈ 445 µM) | C[C@@H](NC(=O)c1ccccc1)C(=O)OC[C@H](Cc1ccccc1)NC(=O)c1ccccc1
3 | < 4.00 | < 4.00 | < 4.00 | – | C[C@@H](NC(=O)c1ccccc1)C(=O)OC[C@@H](Cc1ccccc1)NC(=O)c1ccccc1
4 | < 4.00 | < 4.00 | < 4.00 | – | CC(=O)N[C@@H](COC(=O)[C@H](Cc1ccccc1)NC(=O)c1ccccc1)Cc1ccccc1
5 | < 4.00 | < 4.00 | < 4.00 | – | C[C@H](NC(=O)c1ccccc1)C(=O)OC[C@@H](Cc1ccccc1)NC(=O)c1ccccc1
6 | < 4.00 | < 4.00 | < 4.00 | 329 (≈ 764 µM) | C[C@H](NC(=O)c1ccccc1)C(=O)OC[C@H](Cc1ccccc1)NC(=O)c1ccccc1
7 | < 4.00 | < 4.00 | < 4.00 | – | CC(=O)N[C@@H](COC(=O)[C@@H](Cc1ccccc1)NC(=O)c1ccccc1)Cc1ccccc1
8 | 4.31 | 4.15 | 4.10 | 485 (≈ 1090 µM) | CC(=O)N[C@H](COC(=O)[C@H](Cc1ccccc1)NC(=O)c1ccccc1)Cc1ccccc1
9 | < 4.00 | < 4.00 | < 4.00 | – | C[C@H](COC(=O)[C@@H](Cc1ccccc1)NC(=O)c1ccccc1)NC(=O)c1ccccc1
10 | < 4.00 | < 4.00 | < 4.00 | – | C[C@H](COC(=O)[C@H](Cc1ccccc1)NC(=O)c1ccccc1)NC(=O)c1ccccc1
11 | < 4.00 | < 4.00 | < 4.00 | – | O=C(N[C@@H](COC(=O)[C@@H](Cc1ccccc1)NC(=O)c1ccccc1)Cc1ccccc1)c1ccccc1
12 | < 4.00 | < 4.00 | < 4.00 | – | CC(=O)N[C@@H](Cc1ccccc1)C(=O)OC[C@@H](Cc1ccccc1)NC(=O)c1ccccc1
13 | 4.10 | 4.25 | 4.16 | 207 (≈ 466 µM) | CC(=O)N[C@H](Cc1ccccc1)C(=O)OC[C@H](Cc1ccccc1)NC(=O)c1ccccc1
14 | 4.05 | < 4.00 | < 4.00 | 560 (≈ 1260 µM) | CC(=O)N[C@@H](Cc1ccccc1)C(=O)OC[C@H](Cc1ccccc1)NC(=O)c1ccccc1
15 | < 4.00 | < 4.00 | < 4.00 | – | O=C(N[C@@H](COC(=O)[C@H](Cc1ccccc1)NC(=O)c1cccc(O)c1)Cc1ccccc1)c1ccccc1
16 | < 4.00 | < 4.00 | < 4.00 | – | CC(=O)N[C@H](Cc1ccccc1)C(=O)OC[C@@H](Cc1ccccc1)NC(=O)c1ccccc1
17 | < 4.00 | < 4.00 | < 4.00 | – | O=C(N[C@@H](COC(=O)[C@H](Cc1ccccc1)NC(=O)c1ccccc1)Cc1ccccc1)c1ccccc1
18 | 4.22 | 4.20 | 4.25 | – | O=C(N[C@@H](COC(=O)[C@H](Cc1ccccc1)NC(=O)c1ccc(O)cc1)Cc1ccccc1)c1ccccc1
19 | 4.48 | 4.28 | 4.29 | – | O=C(N[C@@H](COC(=O)[C@@H](Cc1ccccc1)NC(=O)c1ccc(O)cc1)Cc1ccccc1)c1ccccc1

More lines, now with the values behind:

Row | SMILES | pIC50 (MCF7) | pIC50 (HeLa) | pIC50 (Bel-7402) | solubility thermodynamic at 10 min [1] [µg/mL]
20 | O=C(N[C@@H](COC(=O)[C@H](Cc1ccccc1)NC(=O)c1ccccc1O)Cc1ccccc1)c1ccccc1 | 4.37 | 4.37 | 4.39 | –
21 | O=C(Cc1ccccc1O)N[C@@H](Cc1ccccc1)C(=O)OC[C@@H](Cc1ccccc1)NC(=O)c1ccccc1 | 4.41 | 4.55 | 4.47 | –
22 | O=C(Cc1ccccc1OCc1ccccc1)N[C@@H](Cc1ccccc1)C(=O)OC[C@H](Cc1ccccc1)NC(=O)c1ccccc1 | < 4.00 | < 4.00 | < 4.00 | 223 (≈ 356 µM)
23 | O=C(Cc1ccc(O)cc1)N[C@@H](Cc1ccccc1)C(=O)OC[C@H](Cc1ccccc1)NC(=O)c1ccccc1 | 4.10 | 4.20 | 4.03 | 109 (≈ 204 µM)
24 | O=C(N[C@H](COC(=O)[C@@H](Cc1ccccc1)NC(=O)c1ccc(O)cc1)Cc1ccccc1)c1ccccc1 | 4.27 | 4.23 | 4.16 | 302 (≈ 578 µM)
25 | O=C(Cc1ccc(O)cc1)N[C@H](Cc1ccccc1)C(=O)OC[C@@H](Cc1ccccc1)NC(=O)c1ccccc1 | 4.28 | 4.37 | 4.15 | –
26 | O=C(Cc1ccc(O)cc1)N[C@H](Cc1ccccc1)C(=O)OC[C@H](Cc1ccccc1)NC(=O)c1ccccc1 | < 4.00 | < 4.00 | < 4.00 | 295 (≈ 550 µM)
27 | O=C(N[C@H](COC(=O)[C@H](Cc1ccccc1)NC(=O)c1ccccc1OCc1ccccc1)Cc1ccccc1)c1ccccc1 | < 4.00 | < 4.00 | < 4.00 | 26.3 (≈ 43 µM)
28 | O=C(Cc1ccccc1O)N[C@@H](Cc1ccccc1)C(=O)OC[C@H](Cc1ccccc1)NC(=O)c1ccccc1 | < 4.00 | < 4.00 | < 4.00 | 349 (≈ 650 µM)
29 | O=C(Cc1ccc(O)cc1)N[C@@H](Cc1ccccc1)C(=O)OC[C@@H](Cc1ccccc1)NC(=O)c1ccccc1 | < 4.00 | < 4.00 | < 4.00 | –
30 | O=C(Cc1ccccc1OCc1ccccc1)N[C@@H](Cc1ccccc1)C(=O)OC[C@@H](Cc1ccccc1)NC(=O)c1ccccc1 | 4.55 | 4.23 | 4.15 | –
31 | O=C(N[C@@H](COC(=O)[C@@H](Cc1ccccc1)NC(=O)c1cccc(O)c1)Cc1ccccc1)c1ccccc1 | 4.26 | 4.20 | 4.30 | –
32 | O=C(Cc1ccccc1OCc1ccccc1)N[C@H](Cc1ccccc1)C(=O)OC[C@H](Cc1ccccc1)NC(=O)c1ccccc1 | 4.54 | 4.59 | 4.42 | 135 (≈ 216 µM)
33 | O=C(N[C@H](COC(=O)[C@H](Cc1ccccc1)NC(=O)c1cccc(O)c1)Cc1ccccc1)c1ccccc1 | < 4.00 | < 4.00 | < 4.00 | 1590 (≈ 3040 µM)
34 | O=C(Cc1ccccc1O)N[C@H](Cc1ccccc1)C(=O)OC[C@@H](Cc1ccccc1)NC(=O)c1ccccc1 | 4.73 | 4.71 | 4.53 | –
35 | O=C(N[C@H](COC(=O)[C@@H](Cc1ccccc1)NC(=O)c1ccccc1OCc1ccccc1)Cc1ccccc1)c1ccccc1 | 4.37 | 4.61 | 4.50 | 42.6 (≈ 69.5 µM)
36 | O=C(N[C@@H](COC(=O)[C@@H](Cc1ccccc1)NC(=O)c1ccccc1OCc1ccccc1)Cc1ccccc1)c1ccccc1 | 4.15 | 4.26 | 4.39 | –
37 | O=C(N[C@@H](COC(=O)[C@@H](Cc1ccccc1)NC(=O)c1ccccc1O)Cc1ccccc1)c1ccccc1 | 4.44 | 4.37 | 4.42 | –
38 | O=C(N[C@@H](COC(=O)[C@H](Cc1ccccc1)NC(=O)c1ccccc1OCc1ccccc1)Cc1ccccc1)c1ccccc1 | 4.07 | 4.14 | 4.14 | –
